Assay results as given in US20230303540A1 (Merck Sharp & Dohme LLC, priority 2020, published 2023).

Biological target: GST-tagged truncated human mutant G2019S LRRK2 (Homo sapiens, UniProt Q5S007, G2019S)
Experiment: LRRK2 G2019S Km ATP LanthaScreen assay
Assay type: biochemical
Conditions: 134 μM ATP (Km ATP), LRRKtide substrate, mean IC50 values; read-out: LRRK2 pIC50 (converted)
Procedure: Unless otherwise noted, all reactions are magnetically stirred. Unless otherwise noted, when diethyl ether is used in the experiments described below, it is Fisher ACS certified material and is stabilized with BHT. Unless otherwise noted, “concentrated” and/or “solvent removed under reduced pressure” means evaporating the solvent from a solution or mixture using a rotary evaporator or vacuum pump. Unless otherwise noted, flash chromatography is carried out on a Teledyne Isco (Lincoln, NE), Analogix (Burlington, WI), or Biotage (Stockholm, SWE) automated chromatography system using a commercially available cartridge as the column. Columns may be purchased from Teledyne Isco, Analogix, Biotage, Varian (Palo Alto, CA), or Supelco (Bellefonte, PA) and are usually filled with silica gel as the stationary phase. Reverse phase prep-HPLC conditions, where used, can be found at the end of each experimental section. Aqueous solutions were concentrated on a Genevac (Ipswich, ENG) or by freeze-drying/lyophilization. Unless otherwise noted, all LRRK2 pIC50 data presented in tables refers to the LRRK2 G2019S Km ATP LanthaScreen™ assay (Life Technologies Corp., Carlsbad, CA) that is described in the Biological Assay section.
The IC50 values reported herein were measured as follows.
Biological Assay: LRRK2 Km ATP LanthaScreen™ Assay
The LRRK2 kinase activity reported herein as IC50 values was determined with LanthaScreen™ technology from Life Technologies Corporation (Carlsbad, CA) using GST-tagged truncated human mutant G2019S LRRK2 in the presence of the fluorescein-labeled peptide substrate LRRKtide, also from Life Technologies. The data presented for the Km ATP LanthaScreen™ Assay represents mean IC50 values based on several test results and may have reasonable deviations depending on the specific conditions and reagents used. Assays were performed in the presence of 134 μM ATP (Km ATP). Upon completion, the assay was stopped and phosphorylated substrate detected with a terbium (Tb)-labeled anti-pERM antibody (cat. no. PV4898). The compound dose response was prepared by diluting a 10 mM stock of compound to a maximum concentration of 9.99 μM in 100% dimethylsulfoxide followed by custom fold serial dilution in dimethylsulfoxide nine times. Twenty nanoliters of each dilution was spotted via a Labcyte Echo onto a 384-well black-sided plate (Corning 3575) followed by 15 μl of a 1.25 nM enzyme solution in 1× assay buffer (50 mM Tris pH 8.5, 10 mM MgCl2, 0.01% Brij-35, 1 mM EGTA, 2 mM dithiothreitol, 0.05 mM sodium orthovanadate). Following a 15-minute incubation at room temperature, the kinase reaction was started with the addition of 5 μl of 400 nM fluorescein-labeled LRRKtide peptide substrate and 134 μM ATP solution in 1× assay buffer. The reaction was allowed to progress at ambient temperature for 90 minutes. The reaction was then stopped by the addition of 20 μl of TR-FRET Dilution Buffer (Life Technologies, Carlsbad, CA) containing 2 nM Tb-labeled anti-phospho LRRKtide antibody and 10 mM EDTA (Life Technologies, Carlsbad, CA). After an incubation of 1 hour at room temperature, the plate was read on an EnVision multimode plate reader (Perkin Elmer, Waltham, MA) with an excitation wavelength of 337 nm (Laser) and a reading emission at both 520 and 495 nm. Compound IC50s were interpolated from nonlinear regression best fits of the log of the final compound concentration, plotted as a function of the 520/495-nm emission ratio using Activity base. Abase uses a 4 parameter (4P) logistic fit based on the Levenberg-Marquardt algorithm.

| SMILES | IC50 [nM] |
| --- | --- |
| C[C@H]1COC(=O)N1c1ccc2cnc(Nc3cc(C(C)(C)C)ns3)nc2c1 [Ex-8.10, (4S)-3-{2-[(3-tert-butyl-1,2-thiazol-5-yl)amino]quinazolin-7-yl}-4-methyl-1,3-oxazolidin-2-one] | 0.625 |
| CC1CN(C2CCN(c3cc4nc(Nc5cnn(C6CC6)c5Cl)ncc4cc3Cl)CC2)C1 [Ex-1.43, 6-chloro-N-(5-chloro-1-cyclopropyl-1H-pyrazol-4-yl)-7-[4-(3-methylazetidin-1-yl)piperidin-1-yl]quinazolin-2-amine] | 12.7 |
| Cc1c(Nc2ncc3cc(Cl)c(N4CCN(C5COC(C)(C)C5)CC4)cc3n2)cnn1C1CC1 (single isomer, unassigned) [Ex-12.5, 6-chloro-N-(1-cyclopropyl-5-methyl-1H-pyrazol-4-yl)-7-(4-(5,5-dimethyltetrahydrofuran-3-yl)piperazin-1-yl)quinazolin-2-amine] | 0.56 |
| Cc1c(Nc2ncc3cc(Cl)c(N4CCC(C)(O)CC4C)cc3n2)cnn1C1CC1 (single isomer, unassigned) [Ex-9.2, (2R,4S or 2S,4R, or 2S,4S, or 2R,4R)-1-(6-Chloro-2-((1-cyclopropyl-5-methyl-1H-pyrazol-4-yl)amino)quinazolin-7-yl)-2,4-dimethylpiperidin-4-ol] | 1.06 |
| CCn1ncc(Nc2ncc3ccc(N4C(=O)OC[C@@H]4C)cc3n2)c1C [Ex-7.1, (S)-3-(2-((1-ethyl-5-methyl-1H-pyrazol-4-yl)amino)quinazolin-7-yl)-4-methyloxazolidin-2-one] | 0.989 |
| OC1CCN(c2cc3nc(Nc4cnn(C5CC5)c4Cl)ncc3cc2Cl)CC1 [Ex-3.8, 1-{6-chloro-2-[(5-chloro-1-cyclopropyl-1H-pyrazol-4-yl)amino]quinazolin-7-yl}piperidin-4-ol] | 2.53 |
| Cc1cc2cnc(Nc3cnn(C4CC4)c3Cl)nc2cc1N1CCC(C)(O)CC1 [Ex-3.55, 1-{2-[(5-chloro-1-cyclopropyl-1H-pyrazol-4-yl)amino]-6-methylquinazolin-7-yl}-4-methylpiperidin-4-ol] | 12.1 |
| CC(C)(O)Cn1cc(Nc2ncc3cc(Cl)c(N4CCC(O)CC4)cc3n2)cn1 [Ex-3.10, 1-(6-chloro-2-{[1-(2-hydroxy-2-methylpropyl)-1H-pyrazol-4-yl]amino}quinazolin-7-yl)piperidin-4-ol] | 0.407 |
| CC1(N2CCN(c3cc4nc(Nc5cnn(C6(C)CC6)c5)ncc4cc3Cl)CC2)COC1 [Ex-4.16, 6-chloro-N-[1-(1-methylcyclopropyl)-1H-pyrazol-4-yl]-7-[4-(3-methyloxetan-3-yl)piperazin-1-yl]quinazolin-2-amine] | 1.12 |
| Cc1cc(Nc2ncc3cc(Cl)c(N4CCN(C5(C)COCC5O)[C@@H](C)C4)cc3n2)n(C2CC2)n1 (single isomer, unassigned) [Ex-13.9, 4-((S or R) (3S,4S) or (3R,4R)-4-(6-chloro-2-((1-cyclopropyl-3-methyl-1H-pyrazol-5-yl)amino)quinazolin-7-yl)-2-methylpiperazin-1-yl)-4-methyltetrahydrofuran-3-ol] | 97.5 |
| CC1(N2CCN(c3cc4nc(Nc5cnn(C6CC6)c5Cl)ncc4cc3Cl)CC2)COC1 [Ex-4.58, 6-chloro-N-(5-chloro-1-cyclopropyl-1H-pyrazol-4-yl)-7-[4-(3-methyloxetan-3-yl)piperazin-1-yl]quinazolin-2-amine] | 2.32 |
| Cc1c(Nc2ncc3cc(Cl)c(N4CCC(C)(O)CC4)cc3n2)cnn1C(C)(C)C#N [Ex-6.15, 2-(4-{[6-chloro-7-(4-hydroxy-4-methylpiperidin-1-yl)quinazolin-2-yl]amino}-5-methyl-1H-pyrazol-1-yl)-2-methylpropanenitrile] | 3.57 |
| CC1CCN1c1cc2nc(Nc3cnn(C4CN(CC(C)(C)O)C4)c3)ncc2cc1Cl (stereo not drawn) [Ex-4.10, 1-[3-(4-{[6-chloro-7-(2-methylazetidin-1-yl)quinazolin-2-yl]amino}-1H-pyrazol-1-yl)azetidin-1-yl]-2-methylpropan-2-ol] | 34.3 |
| CCc1cc2cnc(Nc3cnn(C4CC4(F)F)c3Cl)nc2cc1N1CCN(C2(C)COCC2O)CC1 (single isomer, unassigned) [Ex-8.3, (3S,4S) or (3R,4R) 4-(4-(2-((5-chloro-1-(2,2-(R) or (S)difluorocyclopropyl)-1H-pyrazol-4-yl)amino)-6-ethylquinazolin-7-yl)piperazin-1-yl)-4-methyltetrahydrofuran-3-ol] | 0.745 |
| CC1(N2CCN(c3cc4nc(Nc5cnn6c5CCC6)ncc4cc3Cl)CC2)COC1 [Ex-4.20, 6-chloro-N-(5,6-dihydro-4H-pyrrolo[1,2-b]pyrazol-3-yl)-7-[4-(3-methyloxetan-3-yl)piperazin-1-yl]quinazolin-2-amine] | 2.59 |
| CC1(O)CCN(c2cc3nc(Nc4cnn(C56CC(C5)C6)c4)ncc3cc2Cl)CC1 [Ex-6.11, 1-(2-{[1-(bicyclo[1.1.1]pentan-1-yl)-1H-pyrazol-4-yl]amino}-6-chloroquinazolin-7-yl)-4-methylpiperidin-4-ol] | 0.808 |
| CC1(N2CCN(c3cc4cc(Nc5cnn(C6CC6(F)F)c5Cl)ncc4cc3Cl)CC2)COCC1O (single isomer, unassigned) [Ex-6.52, (3S,4S) or (3R,4R) 4-(4-(7-chloro-3-((5-chloro-1-(2,2-difluorocyclopropyl)-1H-pyrazol-4-yl)amino)isoquinolin-6-yl)piperazin-1-yl)-4-methyltetrahydrofuran-3-ol] | 3.12 |
| FC(F)(F)C1(n2ncc(Nc3ncc4cc(Cl)c(N5CCN(C6COC6)CC5)cc4n3)c2Cl)CC1 [Ex.3.23, 6-chloro-N-{5-chloro-1-[1-(trifluoromethyl)cyclopropyl]-1H-pyrazol-4-yl}-7-[4-(oxetan-3-yl)piperazin-1-yl]quinazolin-2-amine] | 3.45 |
| Cc1cc2cnc(Nc3cnn(C45CC(C4)C5)c3Cl)nc2cc1N1CCN(C2COCC2O)CC1 (single isomer, unassigned) [Ex-5.13, (3S,4S) or (3R,4R) 4-(4-(2-((1-(bicyclo[1.1.1]pentan-1-yl)-5-chloro-1H-pyrazol-4-yl)amino)-6-methylquinazolin-7-yl)piperazin-1-yl)tetrahydrofuran-3-ol] | 1.05 |
| CCn1ncc(Nc2ncc3ccc(N4CCC4C)cc3n2)c1C (single isomer, unassigned) [Ex-1.11, (S) or (R) N-(1-ethyl-5-methyl-1H-pyrazol-4-yl)-7-(2-methylazetidin-1-yl)quinazolin-2-amine] | 33.2 |
| OC1COCC1N1CCN(c2cc3nc(Nc4cnn(C5CC5(F)F)c4Cl)ncc3cc2Cl)CC1 (single isomer, unassigned) [Ex-6.31, (3S,4S) or (3R,4R) 4-[4-(6-chloro-2-{[5-chloro-1-(2,2-(R) or (S)difluorocyclopropyl)-1H-pyrazol-4-yl]amino}quinazolin-7-yl)piperazin-1-yl]oxolan-3-ol] | 17.9 |
| Cc1cc2cnc(Nc3cnn(C4CC4(F)F)c3Cl)nc2cc1N1CCNCC1 (stereo not drawn) [Ex-5.14, N-(5-chloro-1-(2,2-difluorocyclopropyl)-1H-pyrazol-4-yl)-6-methyl-7-(piperazin-1-yl)quinazolin-2-amine] | 11.6 |
| CC1(O)CC2(CN(c3cc4nc(Nc5cnn(C6CC6)c5)ncc4cc3Cl)C2)C1 [Ex-4.23, 2-{6-chloro-2-[(1-cyclopropyl-1H-pyrazol-4-yl)amino]quinazolin-7-yl}-6-methyl-2-azaspiro[3.3]heptan-6-ol] | 2.47 |
| O[C@@H]1COC[C@@H]1N1CCN(c2cc3nc(Nc4cnn(C5CC5)c4Cl)ncc3cc2Cl)CC1 (single isomer, unassigned) [Ex-3.52, (3R,4R) or (3S,4S) 4-(4-{6-chloro-2-[(5-chloro-1-cyclopropyl-1H-pyrazol-4-yl)amino]quinazolin-7-yl}piperazin-1-yl)oxolan-3-ol] | 0.887 |
